Results as given in patent US20060069132A1, “Azolecarboxamide herbicides” (priority 2004, published 2006).

Experiments:
goosegrass = experiment: Test C pre-/postemergence herbicide test; type: in vivo, Eleusine indica
Summary of the method: (§1)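 Preemergence: seeds planted and treated with compound in non-phytotoxic solvent with surfactant; postemergence: plants at 2 to 18 cm (1- to 4-leaf stage) sprayed likewise. Kept in greenhouse 12 to 14 days, then visually rated against controls, 0 (no effect) to 100 (complete control).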

rice = experiment: Test B pre-/postemergence herbicide test; type: in vivo, Oryza sativa; settings: for Rice plant response rating (0 to 100 scale) / Plant response rating, Rice: preemergence; for Plant response rating, Rice: visual rating
Summary of the method: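 Plants compared with untreated controls 13–15 days post-treatment and given a visual 0–100 injury score. Applications: preemergence to seeds; postemergence at 1- to 4-leaf (2–18 cm); paddy species flooded, 2-leaf stage. Vehicle non-phytotoxic, surfactant included.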

velvetleaf = experiment: Test C pre-/postemergence herbicide test; type: in vivo, Abutilon theophrasti
Summary of the method: as §1

kochia = experiment: Test C pre-/postemergence herbicide test; type: in vivo, Kochia scoparia
Summary of the method: as §1

barnyardgrass = experiment: Test C flooded paddy test; type: in vivo, Echinochloa crus-galli; settings: for Plant response rating, Barnyardgrass: 500 g ai/ha, visual rating after 12 to 14 days
Summary of the method: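 Ratings (0 = no effect, 100 = complete control) come from visual comparison with untreated plants after 12 to 14 days in the greenhouse. Treatment was postemergence at the 1- to 4-leaf stage (2–18 cm), or at the 2-leaf stage for the flooded paddy barnyardgrass.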

large crabgrass = experiment: Test C pre-/postemergence herbicide test; type: in vivo, Digitaria sanguinalis
Summary of the method: as §1

common ragweed = experiment: Test C pre-/postemergence herbicide test; type: in vivo, Ambrosia elatior; set-up: key to Plant response rating, Ragweed: 0 = no effect, 100 = complete control
Summary of the method: as §1

pigweed = experiment: Test C pre-/postemergence herbicide test; type: in vivo, Amaranthus retroflexus
Summary of the method: as §1

[1] = 62 g ai/ha, preemergence, scale 0 to 100
[2] = 125 g ai/ha, scale 0 (no effect) to 100 (complete control), visual, 12 to 14 days, preemergence
[3] = 250 g ai/ha, scale 0-100, preemergence
[4] = 500 g ai/ha, scale 0 to 100 (0 no effect, 100 complete control), visual, 12 to 14 days, preemergence
[5] = 125 g ai/ha, 0 = no effect, 100 = complete control
[6] = 500 g ai/ha, 0 = no effect, 100 = complete control
[7] = 62 g ai/ha, scale 0 to 100 (0 no effect, 100 complete control)
[8] = 125 g ai/ha, scale 0 to 100 (0 no effect, 100 complete control)
[9] = 250 g ai/ha, scale of 0 to 100, 0 is no effect, 100 is complete control
[10] = scale 0 to 100 (0 no effect, 100 complete control)
[11] = Preemergence, 500 g ai/ha, scale 0 to 100, 0 no effect, 100 complete control

CCn1nc(C(C)(C)C)cc1C(=S)Nc1cc(C(=S)N(C)C)ccc1F [Compound 305]
Plant response rating, Goosegrass (goosegrass; [1]): 80 | Plant response rating, Goosegrass (goosegrass; [2]): 85 | Plant response rating, Goosegrass (goosegrass; [3]): 95 | Plant response rating, Goosegrass (goosegrass; [4]): 95 | Rice plant response rating (0 to 100 scale) (rice; [5]): 70 | Plant response rating, Rice (rice; [6]): 80 | Plant response rating, Velvetleaf (velvetleaf; [1]): 40 | Plant response rating, Velvetleaf (velvetleaf; [3]): 100 | Plant response rating, Velvetleaf (velvetleaf; [4]): 100 | Plant response rating, Kochia (kochia; [1]): 100 | Plant response rating, Kochia (kochia; [2]): 100 | Plant response rating, Kochia (kochia; [3]): 100 | Plant response rating, Kochia (kochia; [4]): 100 | Barnyardgrass plant response rating (barnyardgrass; [7]): 70 | Barnyardgrass plant response rating (barnyardgrass; [8]): 85 | Barnyardgrass plant response rating (barnyardgrass; [9]): 95 | Plant response rating, Barnyardgrass (barnyardgrass; [10]): 100 | Plant response rating, Crabgrass, Large (large crabgrass; [1]): 70 | Plant response rating, Crabgrass, Large (large crabgrass; [2]): 100 | Plant response rating, Crabgrass, Large (large crabgrass; [3]): 100 | Plant response rating, Crabgrass, Large (large crabgrass; [4]): 100 | Plant response rating, Ragweed (common ragweed; [1]): 10 | Plant response rating, Ragweed (common ragweed; [3]): 85 | Plant response rating, Ragweed (common ragweed; [4]): 100 | Plant response rating, Pigweed (pigweed; [1]): 100 | Plant response rating, Pigweed (pigweed; [2]): 100 | Plant response rating, Pigweed (pigweed; [3]): 100 | Plant response rating, Pigweed (pigweed; [4]): 100

CCn1nc(C2(C)CC2)cc1C(=O)Nc1cc(C(=O)N(C)C)ccc1F [Compound 299]
Plant response rating, Goosegrass (goosegrass; [1]): 100 | Plant response rating, Goosegrass (goosegrass; [2]): 100 | Plant response rating, Goosegrass (goosegrass; [3]): 100 | Plant response rating, Goosegrass (goosegrass; [4]): 100 | Rice plant response rating (0 to 100 scale) (rice; [5]): 80 | Plant response rating, Rice (rice; [6]): 90 | Plant response rating, Velvetleaf (velvetleaf; [1]): 5 | Plant response rating, Velvetleaf (velvetleaf; [3]): 100 | Plant response rating, Velvetleaf (velvetleaf; [4]): 100 | Plant response rating, Kochia (kochia; [1]): 100 | Plant response rating, Kochia (kochia; [2]): 100 | Plant response rating, Kochia (kochia; [3]): 100 | Plant response rating, Kochia (kochia; [4]): 100 | Barnyardgrass plant response rating (barnyardgrass; [7]): 85 | Barnyardgrass plant response rating (barnyardgrass; [8]): 85 | Barnyardgrass plant response rating (barnyardgrass; [9]): 95 | Plant response rating, Barnyardgrass (barnyardgrass; [10]): 95 | Plant response rating, Crabgrass, Large (large crabgrass; [1]): 100 | Plant response rating, Crabgrass, Large (large crabgrass; [2]): 100 | Plant response rating, Crabgrass, Large (large crabgrass; [3]): 100 | Plant response rating, Crabgrass, Large (large crabgrass; [4]): 100 | Plant response rating, Ragweed (common ragweed; [1]): 100 | Plant response rating, Ragweed (common ragweed; [3]): 100 | Plant response rating, Ragweed (common ragweed; [4]): 100 | Plant response rating, Pigweed (pigweed; [1]): 100 | Plant response rating, Pigweed (pigweed; [2]): 100 | Plant response rating, Pigweed (pigweed; [3]): 100 | Plant response rating, Pigweed (pigweed; [4]): 100

CCNC(=O)c1cccc(NC(=O)c2cc(C3(C)CC3)nn2CC)c1 [Compound 306]
Plant response rating, Goosegrass (goosegrass; [1]): 50 | Plant response rating, Goosegrass (goosegrass; [2]): 70 | Plant response rating, Goosegrass (goosegrass; [3]): 100 | Plant response rating, Goosegrass (goosegrass; [4]): 100 | Rice plant response rating (0 to 100 scale) (rice; [5]): 60 | Plant response rating, Rice (rice; [6]): 80 | Plant response rating, Velvetleaf (velvetleaf; [1]): 5 | Plant response rating, Velvetleaf (velvetleaf; [4]): 10 | Plant response rating, Kochia (kochia; [1]): 0 | Plant response rating, Kochia (kochia; [2]): 80 | Plant response rating, Kochia (kochia; [3]): 100 | Plant response rating, Kochia (kochia; [4]): 100 | Barnyardgrass plant response rating (barnyardgrass; [7]): 0 | Barnyardgrass plant response rating (barnyardgrass; [8]): 45 | Barnyardgrass plant response rating (barnyardgrass; [9]): 55 | Plant response rating, Barnyardgrass (barnyardgrass; [10]): 70 | Plant response rating, Crabgrass, Large (large crabgrass; [1]): 100 | Plant response rating, Crabgrass, Large (large crabgrass; [2]): 100 | Plant response rating, Crabgrass, Large (large crabgrass; [3]): 100 | Plant response rating, Crabgrass, Large (large crabgrass; [4]): 100 | Plant response rating, Ragweed (common ragweed; [1]): 0 | Plant response rating, Ragweed (common ragweed; [4]): 100 | Plant response rating, Pigweed (pigweed; [1]): 100 | Plant response rating, Pigweed (pigweed; [2]): 100 | Plant response rating, Pigweed (pigweed; [3]): 100 | Plant response rating, Pigweed (pigweed; [4]): 100

CCn1nc(C(C)(C)C)cc1C(=O)Nc1cc(C(=S)N(C)C)ccc1F [Compound 294]
Plant response rating, Goosegrass (goosegrass; [1]): 80 | Plant response rating, Goosegrass (goosegrass; [2]): 80 | Plant response rating, Goosegrass (goosegrass; [3]): 85 | Plant response rating, Goosegrass (goosegrass; [4]): 100 | Rice plant response rating (0 to 100 scale) (rice; [5]): 90 | Plant response rating, Rice (rice; [6]): 100 | Plant response rating, Velvetleaf (velvetleaf; [1]): 100 | Plant response rating, Velvetleaf (velvetleaf; [3]): 100 | Plant response rating, Velvetleaf (velvetleaf; [4]): 100 | Plant response rating, Kochia (kochia; [1]): 100 | Plant response rating, Kochia (kochia; [2]): 100 | Plant response rating, Kochia (kochia; [3]): 100 | Plant response rating, Kochia (kochia; [4]): 100 | Barnyardgrass plant response rating (barnyardgrass; [7]): 75 | Barnyardgrass plant response rating (barnyardgrass; [8]): 90 | Barnyardgrass plant response rating (barnyardgrass; [9]): 95 | Plant response rating, Barnyardgrass (barnyardgrass; [10]): 100 | Plant response rating, Crabgrass, Large (large crabgrass; [1]): 70 | Plant response rating, Crabgrass, Large (large crabgrass; [2]): 95 | Plant response rating, Crabgrass, Large (large crabgrass; [3]): 100 | Plant response rating, Crabgrass, Large (large crabgrass; [4]): 100 | Plant response rating, Ragweed (common ragweed; [1]): 100 | Plant response rating, Ragweed (common ragweed; [3]): 100 | Plant response rating, Ragweed (common ragweed; [4]): 100 | Plant response rating, Pigweed (pigweed; [1]): 100 | Plant response rating, Pigweed (pigweed; [2]): 100 | Plant response rating, Pigweed (pigweed; [3]): 100 | Plant response rating, Pigweed (pigweed; [4]): 100

CCc1nn(C(C)(C)C)cc1C(=O)Nc1cccc(C(=O)N(CC)CC)c1 [Compound 182, N-[3-[(diethylamino)carbonyl]phenyl]-1-(1,1-dimethylethyl)-3-ethyl-1H-pyrazole-4-carboxamide]
pest or weed control at 62 g/ha (goosegrass; Eleusine indica, pre-emergence, 312 h, 62 g ai/ha, preemergence, scale 0 to 100, read-out: Plant response rating, Goosegrass): 0% | pest or weed control at 125 g/ha (goosegrass; Eleusine indica, pre-emergence, 312 h, 125 g ai/ha, scale 0 (no effect) to 100 (complete control), visual, 12 to 14 days, read-out: Plant response rating, Goosegrass): 25% | Goosegrass plant response rating (goosegrass; [11]): 80 | plant injury at 125 g/ha (rice; Oryza sativa, pre-emergence, 336 h, 125 g ai/ha, 0 = no effect, 100 = complete control, read-out: Rice plant response rating (0 to 100 scale)): 0% | plant injury at 500 g/ha (rice; Oryza sativa, pre-emergence, 336 h, 500 g ai/ha, visual rating 0-100, 0 no effect, 100 complete control, read-out: Plant response rating, Rice): 50% | pest or weed control at 62 g/ha (velvetleaf; Abutilon theophrasti, pre-emergence, 62 g ai/ha, preemergence, scale 0 to 100, read-out: Plant response rating, Velvetleaf): 0% | pest or weed control at 125 g/ha (velvetleaf; Abutilon theophrasti, pre-emergence, 125 g ai/ha, scale 0 (no effect) to 100 (complete control), visual, 12 to 14 days, read-out: Plant response rating, Velvetleaf): 0% | Velvetleaf plant response rating (velvetleaf; [11]): 100 | pest or weed control at 62 g/ha (kochia; Bassia scoparia, pre-emergence, 62 g ai/ha, preemergence, scale 0 to 100, read-out: Plant response rating, Kochia): 0% | pest or weed control at 125 g/ha (kochia; Bassia scoparia, pre-emergence, 125 g ai/ha, scale 0 (no effect) to 100 (complete control), visual, 12 to 14 days, read-out: Plant response rating, Kochia): 60% | Kochia plant response rating (kochia; [11]): 90 | pest or weed control at 62 g/ha (large crabgrass; Digitaria sanguinalis, pre-emergence, 312 h, 62 g ai/ha, preemergence, scale 0 to 100, read-out: Plant response rating, Crabgrass, Large): 0% | pest or weed control at 125 g/ha (large crabgrass; Digitaria sanguinalis, pre-emergence, 312 h, 125 g ai/ha, scale 0 (no effect) to 100 (complete control), visual, 12 to 14 days, read-out: Plant response rating, Crabgrass, Large): 25% | pest or weed control at 250 g/ha (large crabgrass; Digitaria sanguinalis, pre-emergence, 312 h, 250 g ai/ha, scale 0 to 100 (0 no effect, 100 complete control), visual, 12 to 14 days, read-out: Plant response rating, Crabgrass, Large): 75% | Crabgrass, Large plant response rating (large crabgrass; [11]): 100 | pest or weed control at 62 g/ha (common ragweed; Ambrosia artemisiifolia, pre-emergence, 62 g ai/ha, preemergence, scale 0 to 100, read-out: Plant response rating, Ragweed): 20% | pest or weed control at 125 g/ha (common ragweed; Ambrosia artemisiifolia, pre-emergence, 125 g ai/ha, scale 0 (no effect) to 100 (complete control), visual, 12 to 14 days, read-out: Plant response rating, Ragweed): 20% | Ragweed plant response rating (common ragweed; [11]): 65 | pest or weed control at 62 g/ha (pigweed; Amaranthus retroflexus, pre-emergence, 62 g ai/ha, preemergence, scale 0 to 100, read-out: Plant response rating, Pigweed): 95% | pest or weed control at 125 g/ha (pigweed; Amaranthus retroflexus, pre-emergence, 125 g ai/ha, scale 0 (no effect) to 100 (complete control), visual, 12 to 14 days, read-out: Plant response rating, Pigweed): 95% | Pigweed plant response rating (pigweed; [11]): 95
